Laboratory results as given in PMC9200688, “The production and biochemical characterization of α-carbonic anhydrase from Lactobacillus rhamnosus GG” (Applied Microbiology and Biotechnology, 2022).
Entries after “also recorded” stand apart in the source; their conditions may differ.

Test system: L. rhamnosus GG
Test: In vitro inhibition assay with acetazolamide: growth of L. rhamnosus GG culture (OD595)
Settings: AAZ 1 nM to 10 mM in MRS, 37 °C, anaerobic and aerobic, 96 h, OD595 at 0, 24, 48, 72, 96 h

With `CC(=O)Nc1nnc(S(N)(=O)=O)s1` [AAZ, acetazolamide] the “Effect of acetazolamide on cell growth of L. rhamnosus GG (OD595)” value (from here on “Effect of acetazolamide”) was “very little or no inhibitory effect on cell growth; also recorded: no significant effect on the growth”.

Same assay, conditions: AAZ 1 nM to 10 mM in MRS, 37 °C, anaerobic and aerobic, 96 h, OD595 at 0, 24, 48, 72, 96 h; listed as Acetazolamide

For `CC(=O)Nc1nnc(S(N)(=O)=O)s1` [AAZ, acetazolamide], the “Effect of acetazolamide” value was “marginal inhibitory effect on cell growth”.

Same assay, conditions: AAZ 1 nM to 10 mM in MRS, 37 °C, anaerobic and aerobic, 96 h, OD595 at 0, 24, 48, 72, 96 h; listed as acetazolamide

For `CC(=O)Nc1nnc(S(N)(=O)=O)s1` [AAZ, acetazolamide], the “Effect of acetazolamide” value was “no significant effect on cell growth”.

Target: T1, α-carbonic anhydrase of L. rhamnosus (LrhCA) (Lacticaseibacillus rhamnosus, UniProt A0A809N5C7)
T1 sequence (A0A809N5C7 1-215): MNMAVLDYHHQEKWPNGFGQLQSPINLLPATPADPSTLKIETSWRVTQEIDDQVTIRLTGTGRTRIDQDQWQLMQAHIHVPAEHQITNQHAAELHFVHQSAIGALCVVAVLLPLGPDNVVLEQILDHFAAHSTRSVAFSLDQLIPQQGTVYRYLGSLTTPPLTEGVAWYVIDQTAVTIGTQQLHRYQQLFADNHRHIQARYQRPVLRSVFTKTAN
Test: Sulfonamide inhibition of LrhCA, stopped-flow CO2 hydrase assay
Format: biochemical, Lactobacillus rhamnosus GG
Settings: Ki LrhCA

Point of comparison: `Nc1ccc(S(=O)(=O)Nc2nnc(S(N)(=O)=O)s2)cc1`, Ki 0.319 µM. Against it:
- Nc1nccc(Nc2ccc(S(N)(=O)=O)cc2)n1 [compound 19] — 14-fold higher, 4.41 µM
- Nc1nnc(S(N)(=O)=O)s1 [compound 13, 5-amino-1,3,4-thiadizole-2-sulfonamide] — 2.7-fold higher, 0.866 µM
- NS(=O)(=O)c1ccc(S(=O)(=O)Nc2cccc3c(Cl)c[nH]c23)cc1 [IND, indisulam, reference compound] — higher, > 10 µM
- NS(=O)(=O)c1ccc(N2CCCCS2(=O)=O)cc1 [SLT, reference compound] — 29-fold higher, 9.31 µM
- Nc1cc(C(F)(F)F)c(S(N)(=O)=O)cc1S(N)(=O)=O [compound 11] — 24-fold higher, 7.56 µM
- CC1(C)O[C@@H]2[C@@H](CO[C@@]3(COS(N)(=O)=O)OC(C)(C)O[C@@H]23)O1 [TPM, topiramate, reference compound] — 1.6-fold higher, 0.508 µM
- NS(=O)(=O)c1nnc(NS(=O)(=O)c2ccccc2)s1 [BZA, benzolamide, reference compound] — within 1.5-fold, 0.387 µM
- NS(=O)(=O)Cc1noc2ccccc12 [ZNS, reference compound] — 28-fold higher, 8.95 µM
- NS(=O)(=O)c1ccc(C(=O)O)cc1 [compound 18] — 8.5-fold higher, 2.71 µM
- Cc1ccc(S(N)(=O)=O)cc1 [compound 4] — 18-fold higher, 5.6 µM
- O=C1NS(=O)(=O)c2ccccc21 [SAC, saccharin, reference compound] — higher, > 10 µM
- CC(=O)/N=c1/sc(S(N)(=O)=O)nn1C [MZA, methazolamide, reference compound] — 2.6-fold higher, 0.837 µM
- NS(=O)(=O)c1ccc(CO)cc1 [compound 16] — 19-fold higher, 6.01 µM
- Nc1ccc(S(N)(=O)=O)cc1Cl [compound 8] — 28-fold higher, 8.98 µM
- Nc1cc(Cl)c(S(N)(=O)=O)cc1S(N)(=O)=O [compound 12] — 25-fold higher, 7.93 µM
- CCN[C@H]1CN(CCCOC)S(=O)(=O)c2sc(S(N)(=O)=O)cc21 [BRZ, brinzolamide, reference compound] — within 1.5-fold, 0.433 µM
- Cc1onc(-c2ccccc2)c1-c1ccc(S(N)(=O)=O)cc1 [VLX, valdecoxib, reference compound] — higher, > 10 µM
- Nc1ccc(S(N)(=O)=O)cc1Br [compound 9, 3-bromo-4-amino-benzenesulfonamide] — higher, > 10 µM

Same assay, conditions: stopped-flow CO2 hydrase assay; mean from three different assays, errors 5–10%; recombinant LrhCA; 15 min preincubation at room temperature; read-out: Ki LrhCA

Point of comparison: `NS(=O)(=O)c1ccc(CCNS(=O)(=O)c2ccc([N+](=O)[O-])cc2CO)cc1`, Ki 0.378 µM. Against it:
- NS(=O)(=O)c1cc2c(cc1Cl)NCNS2(=O)=O [HCT, hydrochlorothiazide, reference compound] — higher, > 10 µM
- NS(=O)(=O)c1cccc(S(N)(=O)=O)c1 [compound 3] — 8-fold higher, 3.02 µM
- 4-(4-sulfanilyl-aminomethyl)-benzenesulfonamide [compound 23] — within 1.5-fold, 0.487 µM
- 4-(2-hydroxymethyl-4-nitrophenyl-sulfonamido)ethylbenzenesulfonamide [compound 24] — within 1.5-fold, 0.403 µM
- NCc1ccc(S(N)(=O)=O)cc1 [compound 5, 4-aminomethyl-benzenesulfonamides] — higher, > 10 µM
- NS(=O)(=O)c1cc(Cl)cc(Cl)c1O [compound 10] — 13-fold higher, 5.03 µM
- Nc1ccc(S(=O)(=O)Nc2ccc(S(N)(=O)=O)cc2)cc1 [compound 22] — within 1.5-fold, 0.559 µM

Target: hCA I (human carbonic anhydrase isozyme I)
Test: not given
Settings: human recombinant isozyme; stopped-flow CO2 hydrase assay; data published previously, ref Supuran [2008]; cited from earlier work

Point of comparison: `Cc1ccc(S(N)(=O)=O)cc1` [compound 4], Ki 78.5 µM. Against it:
- NS(=O)(=O)c1cccc(S(N)(=O)=O)c1 [compound 3] — 990-fold lower, 0.079 µM
- O=C1NS(=O)(=O)c2ccccc21 [SAC, saccharin, reference compound] — 4.2-fold lower, 18.5 µM
